In patent publication US20250388574A1, “HETEROCYCLIC COMPOUNDS AS TRIGGERING RECEPTOR EXPRESSED ON MYELOID CELLS 2 AGONISTS AND METHODS OF USE” (AMGEN INC., priority 2020, published 2025):

Biological target: hTREM2 (Homo sapiens, UniProt Q9NZC2)
Assay: Phospho-Syk AlphaScreen/AlphaLISA assay in TREM2 and DAP12 overexpressing HEK293 cells (Example A1)
Format: cell-based
Set-up: expressed in transfected cells
Conditions: HEK293 cells; for EC50: read-out: hTREM2 EC50
Outline: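 Single-cell-cloned HEK293 stably overexpressing TREM2 and DAP12, plated 20,000 cells/well for 20 h, then exposed to compounds (1% DMSO) 45 min at room temperature. Lysates probed for phospho-Syk by AlphaLISA sandwich (anti-pSyk, biotinylated anti-Syk); signal normalized to percent of control (100 nM anti-TREM2 antibody vs isotype) and fitted by 4-parameter logistic.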

Chain of hTREM2 (Q9NZC2 19-230): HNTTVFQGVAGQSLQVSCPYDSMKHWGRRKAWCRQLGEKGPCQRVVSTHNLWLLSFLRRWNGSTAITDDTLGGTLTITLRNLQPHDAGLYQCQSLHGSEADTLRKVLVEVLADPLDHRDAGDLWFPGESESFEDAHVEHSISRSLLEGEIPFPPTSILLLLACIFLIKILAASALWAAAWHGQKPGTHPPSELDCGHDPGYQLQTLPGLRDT
Chain of hTREM2 (O43914 22-113 partner): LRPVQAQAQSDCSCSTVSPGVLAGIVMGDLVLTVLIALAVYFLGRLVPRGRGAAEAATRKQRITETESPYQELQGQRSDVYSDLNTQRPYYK

Row | Emax | EC50 [nM] | Molecule
1 | ++++ (Emax>300) | 50 to 500 | Cc1nc2cc(N3CCO[C@H](c4ccncc4)C3)nc(-c3ccc(Cl)cc3F)c2c(=O)n1C [Example 226, (R)-5-(4-chloro-2-fluorophenyl)-2,3-dimethyl-7-(2-(pyridin-4-yl)morpholino)pyrido[4,3-d]pyrimidin-4(3H)-one]
2 | ++++ (Emax>300) | 3000 to 100000 | CCCn1c(C)nc2cc(N3Cc4cnn(C)c4C3)nc(-c3ccc(Cl)cc3F)c2c1=O [Example 181, 5-(4-chloro-2-fluorophenyl)-2-methyl-7-(1-methyl-4,6-dihydropyrrolo[3,4-c]pyrazol-5(1H)-yl)-3-propylpyrido[4,3-d]pyrimidin-4(3H)-one]
3 | +++ (Emax>200 and ≤300) | 50 to 500 | COc1cc([C@@H]2C[C@@H](c3cc4nc(C)n(C)c(=O)c4c(-c4ccc(Cl)cc4F)n3)CCO2)ccn1 (single isomer, unassigned) [Example 175]
4 | + (Emax>45 and ≤100) | 3000 to 100000 | Cc1cc(Cl)cnc1-c1nc(N2CCOC(c3cnn(C)c3)C2)cc2nc(C)n(C)c(=O)c12 (stereo not drawn) [Example 16, 5-(5-chloro-3-methyl-2-pyridinyl)-2,3-dimethyl-7-(2-(1-methyl-1H-pyrazol-4-yl)-4-morpholinyl)pyrido[4,3-d]pyrimidin-4(3H)-one]
5 | ++++ (Emax>300) | 50 to 500 | Cc1nc2cc(N3CCO[C@H](c4cnn(C)c4)C3)nc(-c3ccc(Cl)cc3)c2c(=O)n1C [Example 220, (R)-5-(4-chlorophenyl)-2,3-dimethyl-7-(2-(1-methyl-1H-pyrazol-4-yl)morpholino)pyrido[4,3-d]pyrimidin-4(3H)-one]
6 | +++ (Emax>200 and ≤300) | 500 to 3000 | Cc1nc2cc(N3CCO[C@H]([C@H]4CCO4)C3)nc(-c3ccc(Cl)cc3F)c2c(=O)n1C (single isomer, unassigned) [Example 41]
7 | +++ (Emax>200 and ≤300) | 3000 to 100000 | Cc1nc2cc(N3CC[C@@H](C(F)F)C3)nc(-c3ccc(Cl)cc3F)c2c(=O)n1C [Example 258, (R)-5-(4-chloro-2-fluorophenyl)-7-(3-(difluoromethyl)pyrrolidin-1-yl)-2,3-dimethylpyrido[4,3-d]pyrimidin-4(3H)-one]
8 | ++++ (Emax>300) | 50 to 500 | CCn1c(C)nc2cc(N3CCO[C@H](c4noc(C)n4)C3)nc(-c3ccc(Cl)cc3F)c2c1=O [Example 147, 5-(4-chloro-2-fluorophenyl)-3-ethyl-2-methyl-7-((2S)-2-(5-methyl-1,2,4-oxadiazol-3-yl)-4-morpholinyl)pyrido[4,3-d]pyrimidin-4(3H)-one]
9 | ++++ (Emax>300) | 50 to 500 | Cc1nc2cc(N3CCO[C@@H](c4cnn(C)c4)C3)nc(-c3cc(F)c(F)cc3F)c2c(=O)n1C [Example 10, 2,3-dimethyl-7-((2S)-2-(1-methyl-1H-pyrazol-4-yl)-4-morpholinyl)-5-(2,4,5-trifluorophenyl)pyrido[4,3-d]pyrimidin-4(3H)-one]
10 | ++++ (Emax>300) | 3000 to 100000 | Cc1nc2cc(N3CCO[C@H](c4cccnc4)C3)nc(-c3ccc(Cl)cc3F)c2c(=O)n1C (single isomer, unassigned) [Example 47]
11 | +++ (Emax>200 and ≤300) | 50 to 500 | Cc1nc2cc(N3CCO[C@@H]([C@@H]4CCOC4)C3)nc(-c3ccc(Cl)cc3F)c2c(=O)n1C (single isomer, unassigned) [Example 44]
12 | ++++ (Emax>300) | 50 to 500 | CCCn1c(C)nc2cc(N3CCO[C@H](c4ccnn4C)C3)nc(-c3ccc(Cl)cc3F)c2c1=O [Example 184, (S)-5-(4-chloro-2-fluorophenyl)-2-methyl-7-(2-(1-methyl-1H-pyrazol-5-yl)morpholino)-3-propylpyrido[4,3-d]pyrimidin-4(3H)-one]
13 | ++++ (Emax>300) | 3000 to 100000 | CCCn1c(C)nc2cc(N3CCO[C@H](c4ccnn4C)C3)nc(-c3ccc(Cl)cc3F)c2c1=O [Example 154, 5-(4-chloro-2-fluorophenyl)-2-methyl-7-((2S)-2-(1-methyl-1H-pyrazol-5-yl)-4-morpholinyl)-3-propylpyrido[4,3-d]pyrimidin-4(3H)-one]
14 | ++++ (Emax>300) | 50 to 500 | Cc1ccc([C@H]2CN(c3cc4nc(C)n(C)c(=O)c4c(-c4ccc(Cl)cc4F)n3)CCO2)cn1 (single isomer, unassigned) [Example 139]
15 | +++ (Emax>200 and ≤300) | 50 to 500 | Cc1nc2cc(N3CCOC(c4cncnc4)C3)nc(-c3ccc(Cl)cc3F)c2c(=O)n1C (stereo not drawn) [Example 51, 5-(4-chloro-2-fluorophenyl)-2,3-dimethyl-7-(2-(5-pyrimidinyl)-4-morpholinyl)pyrido[4,3-d]pyrimidin-4(3H)-one]
16 | +++ (Emax>200 and ≤300) | 500 to 3000 | Cc1nc2cc(N3CCO[C@@H]([C@@H]4CCO4)C3)nc(-c3ccc(Cl)cc3F)c2c(=O)n1C [Example 270, 5-(4-chloro-2-fluorophenyl)-2,3-dimethyl-7-((R)-2-((S)-oxetan-2-yl)morpholino)pyrido[4,3-d]pyrimidin-4(3H)-one]
17 | ++++ (Emax>300) | 500 to 3000 | Cc1nc2cc(N3CCO[C@H](c4nccs4)C3)nc(-c3ccc(Cl)cc3F)c2c(=O)n1C [Example 198, (S)-5-(4-chloro-2-fluorophenyl)-2,3-dimethyl-7-(2-(thiazol-2-yl)morpholino)pyrido[4,3-d]pyrimidin-4(3H)-one]
18 | ++++ (Emax>300) | 3000 to 100000 | Cc1nc2cc(N3CCC(F)(F)[C@H](N(C)C)C3)nc(-c3ccc(Cl)cc3F)c2c(=O)n1C [Example 250, (R)-5-(4-chloro-2-fluorophenyl)-7-(3-(dimethylamino)-4,4-difluoropiperidin-1-yl)-2,3-dimethylpyrido[4,3-d]pyrimidin-4(3H)-one]
19 | ++++ (Emax>300) | 50 to 500 | ethyl (2R,4S)-4-(5-(4-chloro-2-fluorophenyl)-2,3-dimethyl-4-oxo-3,4-dihydropyrido[4,3-d]pyrimidin-7-yl)tetrahydro-2H-pyran-2-carboxylate and ethyl (2S,4R)-4-(5-(4-chloro-2-fluorophenyl)-2,3-dimethyl-4-oxo-3,4-dihydropyrido[4,3-d]pyrimidin-7-yl)tetrahydro-2H-pyran-2-carboxylate [Example 167]
20 | ++++ (Emax>300) | 50 to 500 | Cc1ccc([C@@H]2C[C@@H](c3cc4nc(C)n(C)c(=O)c4c(-c4ccc(Cl)cc4F)n3)CCO2)cn1 [Example 272, 5-(4-chloro-2-fluorophenyl)-2,3-dimethyl-7-((2S,4S)-2-(6-methylpyridin-3-yl)tetrahydro-2H-pyran-4-yl)pyrido[4,3-d]pyrimidin-4(3H)-one]
21 | ++++ (Emax>300) | < 50 | Cc1nc2cc(N3CCO[C@@H](c4ccncc4)C3)nc(-c3ccc(Cl)cc3F)c2c(=O)n1C (single isomer, unassigned) [Example 49]
22 | ++ (Emax>100 and ≤200) | 500 to 3000 | Cc1nc2cc(N3CCO[C@@H](c4cccc(C(F)(F)F)c4)C3)nc(-c3ccc(Cl)cc3F)c2c(=O)n1C (single isomer, unassigned) [Example 91]
23 | ++++ (Emax>300) | 500 to 3000 | Cc1nc2cc(N3CCO[C@H](c4cccc(OC(F)(F)F)c4)C3)nc(-c3ccc(Cl)cc3F)c2c(=O)n1C (single isomer, unassigned) [Example 97]
24 | ++++ (Emax>300) | 3000 to 100000 | Cc1nc2cc(N3CC[C@H](c4cccnc4)C3)nc(-c3ccc(Cl)cc3F)c2c(=O)n1C [Example 261, (R)-5-(4-chloro-2-fluorophenyl)-2,3-dimethyl-7-(3-(pyridin-3-yl)pyrrolidin-1-yl)pyrido[4,3-d]pyrimidin-4(3H)-one]
25 | +++ (Emax>200 and ≤300) | 500 to 3000 | Cc1nc2cc(N3CCO[C@H]([C@@H]4CCO4)C3)nc(-c3ccc(Cl)cc3F)c2c(=O)n1C (single isomer, unassigned) [Example 40]
26 | ++++ (Emax>300) | 50 to 500 | Cc1nc2cc(N3CCO[C@@H](c4cccnc4)C3)nc(-c3ccc(Cl)cc3F)c2c(=O)n1C (single isomer, unassigned) [Example 46]
27 | ++ (Emax>100 and ≤200) | 3000 to 100000 | Cc1nc2cc(N3CCC[C@H](N4CCC4)C3)nc(-c3ccc(Cl)cc3F)c2c(=O)n1C [Example 245, (S)-7-(3-(azetidin-1-yl)piperidin-1-yl)-5-(4-chloro-2-fluorophenyl)-2,3-dimethylpyrido[4,3-d]pyrimidin-4(3H)-one]
28 | ++++ (Emax>300) | 50 to 500 | Cc1nc2cc(N3CCO[C@@H](c4cnn(CCN(C)C)c4)C3)nc(-c3ccc(Cl)cc3F)c2c(=O)n1C [Example 132, 5-(4-chloro-2-fluorophenyl)-7-((2S)-2-(1-(2-(dimethylamino)ethyl)-1H-pyrazol-4-yl)-4-morpholinyl)-2,3-dimethylpyrido[4,3-d]pyrimidin-4(3H)-one]
29 | +++ (Emax>200 and ≤300) | < 50 | CCn1c(C)nc2cc(N3CCO[C@@H](c4ccnc(C)c4)C3)nc(-c3ccc(F)cc3F)c2c1=O [Example 150, 5-(2,4-difluorophenyl)-3-ethyl-2-methyl-7-((2S)-2-(2-methyl-4-pyridinyl)-4-morpholinyl)pyrido[4,3-d]pyrimidin-4(3H)-one]

Row | Molecule | Emax | EC50 [nM]
30 | Cc1nc2cc(N3CCO[C@@H](c4cnn(C(C)C)c4)C3)nc(-c3ccc(Cl)cc3F)c2c(=O)n1C [Example 123, 5-(4-chloro-2-fluorophenyl)-2,3-dimethyl-7-((2S)-2-(1-(2-propanyl)-1H-pyrazol-4-yl)-4-morpholinyl)pyrido[4,3-d]pyrimidin-4(3H)-one] | ++++ (Emax>300) | < 50
